Key:
[1] = tolerance of fluorescent whitening agent upon nails; assay type: in vivo; settings: applied upon nails
Excerpt: In a preferred embodiment, the composition according to the invention includes 2,5-bis(5-tert-butyl-benzoxazol-2-yl)thiophene as fluorescent whitening agent. 2,5-bis(5-tert-butyl-benzoxazol-2-yl)thiophene is known as FWA-184 and has CAS No: [7128-64-5].

[2] = stability of optical brightener in the composition; assay type: physicochemical; settings: in composition of example 1
Excerpt: FWA-184, also known as OB-184 or 2,5′-Bis[2-(5-tert-buty 1-2 benzoxazoly)thiophene is an optical brightener known for polymers, paints and detergents. It's suitable for use in polymers which come into contact with keratinous tissue and skin. Furthermore, it is stable in the present composition. […] It is important that the film-forming polymer is transparent to both visible ranges as well as the wavelengths which are absorbed by the fluorescent whitening agent.

CC(C)(C)c1ccc2oc(-c3ccc(-c4nc5cc(C(C)(C)C)ccc5o4)s3)nc2c1 [FWA-184, 2,5-bis(5-tert-butyl-benzoxazol-2-yl)thiophene]
tolerance upon nails [1]: well tolerated
stability in the present composition [2]: stable

— US20210299022A1, “COMPOSITION FOR THE TREATMENT OF NAIL FUNGUS” (Oystershell NV, priority 2020, published 2021)
